Experiment: mn = molality of the nth substance listed, in mol/kg
Conditions: 101 kPa, Liquid; for speed of sound: Pulse-echo method

[Co+2].[O-][Cl+3]([O-])([O-])[O-].[O-][Cl+3]([O-])([O-])[O-] [cobalt(II) perchlorate] + CO
Conditions | mass density, 283.15 K [kg/m3] | mass density, 288.15 K [kg/m3] | mass density, 293.15 K [kg/m3] | mass density, 298.15 K [kg/m3] | mass density, 303.15 K [kg/m3] | mass density, 308.15 K [kg/m3] | mass density, 313.15 K [kg/m3] | speed of sound, 298.15 K [m/s]
m1 = 0.04954 | 810.666 | 806.009 | 801.334 | 796.648 | 791.945 | 787.216 | 782.455 | 1108.2
m1 = 0.0652 | 813.871 | 809.222 | 804.551 | 799.871 | 795.174 | 790.456 | 785.712 | 1110.5
m1 = 0.08043 | 816.972 | 812.325 | 807.661 | 802.983 | 798.285 | 793.568 | 788.838 | 1112.6
m1 = 0.09601 | 820.184 | 815.542 | 810.881 | 806.21 | 801.517 | 796.812 | 792.084 | 1114.6
m1 = 0.1106 | 823.205 | 818.568 | 813.913 | 809.247 | 804.564 | 799.855 | 795.128 | 1116.9
m1 = 0.1255 | 826.259 | 821.625 | 816.975 | 812.313 | 807.634 | 802.929 | 798.211 | 1118.6
m1 = 0.157 | 832.839 | 828.214 | 823.572 | 818.918 | 814.251 | 809.557 | 804.844 | 1122.7
m1 = 0.1876 | 839.345 | 834.726 | 830.096 | 825.452 | 820.793 | 816.116 | 811.415 | 1127
m1 = 0.2171 | 845.636 | 841.028 | 836.402 | 831.765 | 827.115 | 822.438 | 817.746 | 1131
m1 = 0.2464 | 851.879 | 847.275 | 842.656 | 838.024 | 833.388 | 828.73 | 824.046 | 1135
m1 = 0.2747 | 858.053 | 853.458 | 848.847 | 844.226 | 839.592 | 834.938 | 830.254 | 1138.9
m1 = 0.3036 | 864.446 | 859.854 | 855.253 | 850.642 | 846.019 | 841.375 | 836.709 | 1143

— the NIST ThermoML archive (doi:10.1021/je900732r)
